Key:
[1] = tested on: A549; test: Cytotoxicity against human A549 cells; type: functional, cell-based
[2] = tested on: P388; test: Cytotoxicity against mouse P388 cells; type: functional, cell-based
[3] = tested on: MCF7; test: Cytotoxicity against human MCF7 cells; type: functional, cell-based
[4] = Cytotoxicity against human NCI/ADR cells; type: functional, cell-based; conditions: NCI/ADR-RES
[5] = tested on: PANC-1; test: Cytotoxicity against human PANC1 cells; type: functional, cell-based
[6] = tested on: Vero; test: Cytotoxicity against african green monkey Vero cells; type: cell-based; conditions: Chlorocebus sabaeus

| Compound | IC50 [1] [nM] | IC50 [2] [nM] | IC50 [3] [nM] | IC50 [4] [nM] | IC50 [5] [nM] | IC50 [6] [nM] |
| --- | --- | --- | --- | --- | --- | --- |
| C=C/C=C\[C@H](C)[C@H](OC(N)=O)[C@@H](C)[C@H](O)[C@@H](C)/C=C(\C)[C@H]1[C@H](C)[C@@H](O)[C@@H](C)[C@@H]1/C=C/C[C@@H]1OC(=O)[C@H](C)[C@@H](O)[C@H]1C | 6640 | 2130 | 2100 | > 5000 | 6570 | 21900 |
| C=C/C=C\[C@H](C)[C@H](OC(N)=O)[C@@H](C)[C@H](O)[C@H](C)C[C@](C)(O)[C@H]1[C@H](C)[C@@H](O)[C@@H](C)[C@@H]1/C=C/C[C@@H]1OC(=O)[C@H](C)[C@@H](O)[C@H]1C (relative stereo) | > 5000 | 7650 | 7350 | > 5000 | > 5000 | 11400 |
| C=C/C=C\[C@H](C)[C@H](OC(N)=O)[C@@H](C)[C@H](O)[C@@H](C)C[C@](C)(O)[C@H]1[C@H](C)[C@@H](O)[C@@H](C)[C@@H]1/C=C/C[C@@H]1OC(=O)[C@H](C)[C@@H](O)[C@H]1C (relative stereo) | 2640 | 2090 | 1730 | > 5000 | > 5000 | 16600 |
| C=C/C=C\[C@H](C)[C@H](OC(N)=O)[C@@H](C)[C@H](O)[C@@H](C)C/C(C)=C\[C@H](C)[C@@H](O)[C@@H](C)/C=C\[C@@H](O)C[C@@H]1OC(=O)[C@H](C)[C@@H](O)[C@H]1C [DISERMOLIDE] | 15 | 33 | 2.4 | 17 | 49 | 30000 |
| C=C/C=C\[C@H](C)[C@H](OC(N)=O)[C@@H](C)[C@H](O)[C@@H](C)C/C(C)=C\[C@H](C)[C@H]1O[C@H](C[C@@H]2OC(=O)[C@H](C)[C@@H](O)[C@H]2C)C=C[C@@H]1C | 1460 | 1000 | 1800 | 4400 | 3130 | 3650 |
| C=C/C=C\[C@H](C)[C@H](OC(N)=O)[C@@H](C)[C@H](O)[C@@H](C)C[C@@](C)(O)[C@H]1[C@H](C)[C@@H](O)[C@@H](C)[C@@H]1/C=C/C[C@@H]1OC(=O)[C@H](C)[C@@H](O)[C@H]1C (mixture of isomers) | 840 | 2420 | 2360 | > 5000 | 3030 | 4300 |
| C=C/C=C\[C@H](C)[C@H](OC(N)=O)[C@@H](C)[C@H](O)[C@@H](C)C/C(C)=C\[C@H](C)[C@@H](O)[C@@H](C)/C=C\[C@@H](O)C[C@@H]1OC(=O)[C@H](C)[C@@H](O[Si](C)(C)C(C)(C)C)[C@H]1C | 1990 | 790 | 960 | 2800 | 2650 | 420 |
| C=C/C=C\[C@H](C)[C@H](OC(N)=O)[C@@H](C)[C@H](O)[C@@H](C)CC(=C)[C@H]1[C@H](C)[C@@H](O)[C@@H](C)[C@@H]1/C=C/C[C@@H]1OC(=O)[C@H](C)[C@@H](O)[C@H]1C | 100 | 190 | 130 | 3400 | 330 | 690 |
